Assay results reported in the supplement of paper PMC10307832.

Key:
Test in all cases: relative viability (nuclei count vs DMSO), 5 days (fraction); higher = more cells survive
[1] = compound: O=C(C[C@H]1NCCC[C@@H]1O)Cn1cnc2cc(Br)c(Cl)cc2c1=O (racemic) [Halofuginone] + Cc1cc(Nc2cc(N3CCN(C)CC3)nc(Sc3ccc(NC(=O)C4CC4)cc3)n2)n[nH]1 [Tozasertib] (partner 0.1 µM)
Procedure, shortened: (§1)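 Lung cancer cell lines were seeded in 1536-well plates and dosed by pin tool the next day, with either a single drug or a fixed anchor-drug dose combined with five library-drug doses (not always all listed) spaced in √10 steps. Five days later, one step fixed the cells and stained their nuclei (final 0.05% Triton X-100, 1% formaldehyde, 1 ug/ml Hoechst), and nuclei were counted on 4× images. Relative viability is the nuclei count in treated wells divided by the count in vehicle wells, and each value is the median of duplicate plates.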

[2] = compound: O=C(C[C@H]1NCCC[C@@H]1O)Cn1cnc2cc(Br)c(Cl)cc2c1=O (racemic) [Halofuginone] + Nc1nc2[nH]cc(CCc3ccc(C(=O)N[C@@H](CCC(=O)O)C(=O)O)cc3)c2c(=O)[nH]1 [Pemetrexed] (partner 0.2 µM)
Procedure, shortened: as §1

Decitabine + Foretinib = compound: Nc1ncn([C@H]2C[C@H](O)[C@@H](CO)O2)c(=O)n1 [Decitabine] + COc1cc2c(Oc3ccc(NC(=O)C4(C(=O)Nc5ccc(F)cc5)CC4)cc3F)ccnc2cc1OCCCN1CCOCC1 [Foretinib] (partner 0.25 µM)
Procedure, shortened: as §1

Halofuginone + OSI-027 = compound: O=C(C[C@H]1NCCC[C@@H]1O)Cn1cnc2cc(Br)c(Cl)cc2c1=O (racemic) [Halofuginone] + COc1cccc2cc(-c3nc([C@H]4CC[C@H](C(=O)O)CC4)n4ncnc(N)c34)[nH]c12 [OSI-027] (partner 0.5 µM)
Procedure, shortened: as §1

Cell Line | relative viability ([1]; first compound 0.001 µM) | relative viability ([1]; first compound 0.003162 µM) | relative viability ([1]; first compound 0.01 µM) | relative viability ([1]; first compound 0.03162 µM) | relative viability ([1]; first compound 0.1 µM) | relative viability ([2]; first compound 0.001 µM) | relative viability ([2]; first compound 0.003162 µM) | relative viability ([2]; first compound 0.01 µM) | relative viability ([2]; first compound 0.03162 µM) | relative viability ([2]; first compound 0.1 µM) | relative viability (Decitabine + Foretinib; first compound 0.04 µM) | relative viability (Decitabine + Foretinib; first compound 0.1265 µM) | relative viability (Decitabine + Foretinib; first compound 0.4 µM) | relative viability (Decitabine + Foretinib; first compound 1.265 µM) | relative viability (Decitabine + Foretinib; first compound 4 µM) | relative viability (Halofuginone + OSI-027; first compound 0.001 µM) | relative viability (Halofuginone + OSI-027; first compound 0.003162 µM) | relative viability (Halofuginone + OSI-027; first compound 0.01 µM) | relative viability (Halofuginone + OSI-027; first compound 0.03162 µM) | relative viability (Halofuginone + OSI-027; first compound 0.1 µM)
NCI-H1437 | 0.407 | 0.387 | 0.425 | 0.393 | 0.399 | 0.318 | 0.337 | 0.329 | 0.307 | 0.254 | 1.11 | 0.881 | 0.657 | 0.468 | 0.391 | 0.905 | 0.933 | 0.871 | 0.847 | 0.717
NCI-H358 | 0.107 | 0.0894 | 0.095 | 0.0812 | 0.0809 | 0.171 | 0.167 | 0.167 | 0.154 | 0.138 | 0.53 | 0.406 | 0.274 | 0.142 | 0.136 | 0.972 | 0.836 | 0.664 | 0.267 | 0.107
SW 900 | 0.611 | 0.557 | 0.558 | 0.46 | 0.258 | 0.483 | 0.505 |  | 0.432 | 0.445 | 0.489 | 0.305 | 0.206 | 0.167 | 0.202 | 0.68 | 0.628 | 0.518 | 0.494 | 0.293
NCI-H1355 | 0.667 | 0.533 | 0.538 | 0.527 | 0.488 | 1.07 | 1 | 1.02 | 1.03 | 0.919 | 0.568 | 0.596 | 0.436 | 0.374 | 0.305 | 0.41 | 0.423 | 0.393 | 0.463 | 0.303
SK-LU-1 | 0.367 | 0.381 | 0.34 | 0.313 | 0.171 | 1.03 | 0.981 | 0.912 | 0.921 | 0.409 | 0.686 | 0.674 | 0.376 | 0.356 | 0.356 | 0.388 | 0.399 | 0.406 | 0.341 | 0.276
NCI-H2228 | 0.321 | 0.324 | 0.19 | 0.133 | 0.0815 | 0.32 | 0.29 | 0.345 | 0.273 | 0.074 | 0.593 | 0.532 | 0.352 | 0.273 | 0.207 | 0.741 | 0.647 | 0.465 | 0.371 | 0.198
NCI-H2170 | 0.731 | 0.678 | 0.812 | 0.679 | 0.728 | 0.271 | 0.202 | 0.273 | 0.25 | 0.275 | 0.87 | 0.85 | 0.767 | 0.437 | 0.393 | 0.699 | 0.714 | 0.738 | 0.651 | 0.659
NCI-H2347 | 0.558 | 0.521 | 0.662 | 0.692 | 0.418 | 0.412 | 0.445 | 0.432 | 0.43 | 0.429 |  | 0.857 | 0.454 | 0.683 | 0.819 | 0.577 | 0.336 | 0.454 | 0.425 | 0.344
A-427 | 0.186 | 0.225 | 0.224 | 0.198 | 0.192 | 1 | 1.03 | 0.945 | 0.946 | 0.887 | 0.653 | 0.635 | 0.354 | 0.264 | 0.242 | 0.472 | 0.483 | 0.385 | 0.445 | 0.419
HCC-366 | 0.142 | 0.115 | 0.0951 | 0.104 | 0.0283 | 0.157 | 0.167 | 0.156 | 0.135 | 0.12 | 0.825 | 0.743 | 0.448 | 0.211 | 0.128 | 1.33 | 1.02 | 0.857 | 0.892 | 0.567
HCC-78 | 0.491 | 0.422 | 0.503 | 0.347 | 0.427 | 0.906 | 0.926 | 0.885 | 0.937 | 0.889 | 0.648 | 0.58 | 0.588 | 0.455 | 0.433 | 0.347 | 0.334 | 0.363 | 0.396 | 0.407
PC-14 | 0.701 | 0.626 | 0.495 | 0.529 | 0.208 | 0.153 | 0.148 | 0.143 | 0.163 | 0.164 |  | 0.744 | 0.411 | 0.313 | 0.282 | 0.828 | 0.962 | 0.704 | 0.471 | 0.0328
NCI-H2087 | 0.28 | 0.322 | 0.251 | 0.23 | 0.114 | 0.673 | 0.657 | 0.686 | 0.709 | 0.489 | 0.558 | 0.624 | 0.393 | 0.317 | 0.269 | 0.439 | 0.593 | 0.528 | 0.484 | 0.424
HOP-62 | 0.445 | 0.406 | 0.386 | 0.32 | 0.231 | 0.326 | 0.293 | 0.333 | 0.306 | 0.295 | 0.773 | 0.53 | 0.315 | 0.197 | 0.218 | 0.782 | 0.803 | 0.826 | 0.727 | 0.576
EKVX | 0.432 | 0.377 | 0.352 | 0.354 | 0.349 | 0.42 | 0.474 | 0.396 | 0.409 | 0.416 | 0.65 | 0.995 | 0.605 | 0.353 | 0.365 | 0.656 | 0.789 | 0.773 | 0.499 | 0.539
EMC-BAC-2 | 0.329 | 0.248 | 0.276 | 0.242 | 0.162 | 0.482 | 0.462 | 0.486 | 0.524 | 0.438 | 0.936 | 0.861 | 0.762 | 0.66 | 0.588 | 0.4 | 0.397 | 0.38 | 0.4 | 0.315
